Measured values taken from ChEMBL document CHEMBL3046925, “,-Dibromoacetophenones mediated synthesis of some new 7H-7-alkoxy-3-alkyl/phenyl-6-aryl-s-triazolo[3,4-b][1,3,4]thiadiazines and their antimicrobial evaluation” (2012).
Values after ≈ are worked out from the molar mass of the structure shown. Active and inactive are the calls of the source. The rule behind the calls is not given here.

Legend:
Candida albicans [1] = experiment: Antimicrobial activity against Candida albicans MTCC 227 at 2 mg/ml by two-fold serial dilution method; format: functional
Saccharomyces cerevisiae [2] = experiment: Antimicrobial activity against Saccharomyces cerevisiae MTCC 170 at 2 mg/ml after 24 hr by agar well diffusion method; format: functional; conditions: for zone of inhibition at 2000 µg/mL: MTCC 170, 24 h, read-out: DIZ
Bacillus subtilis [3] = conditions: MTCC 121
Description: (§1) Antimicrobial activity against Bacillus subtilis MTCC 121 at 2 mg/ml after 24 hr by two-fold serial dilution method

Bacillus subtilis [4] = conditions: MTCC 121; remark: listed apart in the source
Description: (§2) Antimicrobial activity against Bacillus subtilis MTCC 121 at 2 mg/ml after 24 hr by agar well diffusion method

Pseudomonas aeruginosa = experiment: Antimicrobial activity against Pseudomonas aeruginosa MTCC 741 at 2 mg/ml after 24 hr by agar well diffusion method; format: functional, organism-based
Saccharomyces cerevisiae [5] = experiment: Antimicrobial activity against Saccharomyces cerevisiae MTCC 170 after 24 hr by two-fold serial dilution method; format: functional
Staphylococcus aureus [6] = conditions: MTCC 96
Candida albicans [7] = experiment: Antimicrobial activity against Candida albicans MTCC 227 at 2 mg/ml by agar well diffusion method; format: functional; conditions: for zone of inhibition at 2000 µg/mL: read-out: DIZ
Escherichia coli = experiment: Antimicrobial activity against Escherichia coli MTCC 1652 at 2 mg/ml after 24 hr by agar well diffusion method; format: functional, organism-based
Staphylococcus aureus [8] = conditions: MTCC 96; remark: listed apart in the source
Bacillus subtilis [9] = experiment: microbe, parasite or virus in culture; format: functional; conditions: MTCC 121, 24 h
Description: as §1

Staphylococcus aureus [10] = experiment: Antimicrobial activity against Staphylococcus aureus MTCC 96 after 24 hr by two-fold serial dilution method; format: functional; conditions: MTCC 96, 24 h
Bacillus subtilis [11] = experiment: microbe, parasite or virus in culture; format: functional; conditions: MTCC 121, 24 h, read-out: DIZ
Description: as §2

Staphylococcus aureus [12] = experiment: Antimicrobial activity against Staphylococcus aureus MTCC 96 at 2 mg/ml after 24 hr by agar well diffusion method; format: functional; conditions: MTCC 96, 24 h, read-out: DIZ

| Compound | MIC (Candida albicans [1]) | zone of inhibition at 2000 µg/mL (Saccharomyces cerevisiae [2]) [mm] | MIC (Bacillus subtilis [3]) | DIZ (Bacillus subtilis [4]) | Activity (Pseudomonas aeruginosa) | MIC (Saccharomyces cerevisiae [5]; MTCC 170, 24 h) [µg/mL] | DIZ (Staphylococcus aureus [6]) | zone of inhibition at 2000 µg/mL (Candida albicans [7]) [mm] | Activity (Escherichia coli) | MIC (Staphylococcus aureus [8]) | MIC (Bacillus subtilis [9]) [µg/mL] | MIC (Staphylococcus aureus [10]) [µg/mL] | zone of inhibition at 2000 µg/mL (Bacillus subtilis [11]) [mm] | zone of inhibition at 2000 µg/mL (Staphylococcus aureus [12]) [mm] | diameter of the inhibition zone (DIZ) (Candida albicans [7]) | diameter of the inhibition zone (DIZ) (Saccharomyces cerevisiae [2]) | MIC (Saccharomyces cerevisiae [5]) |
| --- | --- | --- | --- | --- | --- | --- | --- | --- | --- | --- | --- | --- | --- | --- | --- | --- | --- |
| CCOC1Sc2nnc(CC)n2N=C1c1ccc(Cl)cc1 (stereo not given) | 64 µg/mL (≈ 198 µM) | 18.3 | inactive | inactive | inactive | 32 (≈ 99.1 µM) | inactive | 15.6 | inactive | inactive | – | – | – | – | – | – | – |
| CCOC1Sc2nncn2N=C1c1ccccc1 (stereo not given) | inactive | 13.6 | – | – | inactive | 128 (≈ 492 µM) | – | 13.6 | inactive | – | 64 (≈ 246 µM) | 128 (≈ 492 µM) | 20.3 | 16.3 | – | – | – |
| CC(C)OC1Sc2nnc(-c3ccccc3)n2N=C1c1ccccc1 (stereo not given) | inactive | 13.3 | – | – | inactive | 128 (≈ 365 µM) | – | – | inactive | – | 256 (≈ 730 µM) | 128 (≈ 365 µM) | 15.6 | 18.3 | inactive | – | – |
| CCCOC1Sc2nncn2N=C1c1ccccc1 (stereo not given) | inactive | – | – | – | inactive | – | – | – | inactive | – | 64 (≈ 233 µM) | 128 (≈ 467 µM) | 18.3 | 15.6 | inactive | inactive | inactive |
| CCOC1Sc2nnc(CC)n2N=C1c1ccc(C)cc1 (stereo not given) | inactive | 10.6 | – | – | inactive | > 256 | – | – | inactive | – | 128 (≈ 423 µM) | > 256 | 17 | 12.3 | inactive | – | – |
| CCc1nnc2n1N=C(c1ccc(Cl)cc1)C(OC(C)C)S2 (stereo not given) | inactive | 11.3 | – | – | inactive | > 256 | – | – | inactive | – | > 256 | > 256 | 12.3 | 11.3 | inactive | – | – |
| CCOC1Sc2nnc(CC)n2N=C1c1ccccc1 (stereo not given) | inactive | – | – | – | inactive | – | – | – | inactive | – | 64 (≈ 222 µM) | 256 (≈ 888 µM) | 18.3 | 13.6 | inactive | inactive | inactive |
| CCc1nnc2n1N=C(c1ccccc1)C(OC(C)C)S2 (stereo not given) | inactive | – | – | – | inactive | – | – | – | inactive | – | > 256 | 256 (≈ 847 µM) | 12.3 | 13.6 | inactive | inactive | inactive |
| CCc1nnc2n1N=C(c1ccc(Cl)cc1)C(OC)S2 (stereo not given) | 128 µg/mL (≈ 415 µM) | 12.6 | – | – | inactive | 128 (≈ 415 µM) | – | 13 | inactive | – | 128 (≈ 415 µM) | 64 (≈ 207 µM) | 16.3 | 19.3 | – | – | – |
| CCCOC1Sc2nnc(CC)n2N=C1c1ccc(Cl)cc1 (stereo not given) | inactive | 10.3 | – | – | inactive | > 256 | – | – | inactive | – | 128 (≈ 380 µM) | > 256 | 16.3 | 12.6 | inactive | – | – |
| COC1Sc2nncn2N=C1c1ccccc1 (stereo not given) | 128 µg/mL (≈ 520 µM) | 13.6 | – | – | inactive | 128 (≈ 520 µM) | – | 13.3 | inactive | – | 64 (≈ 260 µM) | 64 (≈ 260 µM) | 18.6 | 19.6 | – | – | – |
| CCCOC1Sc2nnc(CCC)n2N=C1c1ccccc1 (stereo not given) | inactive | 15.3 | – | – | inactive | 64 (≈ 202 µM) | – | – | inactive | – | 128 (≈ 405 µM) | 256 (≈ 809 µM) | 16.3 | 13.6 | inactive | – | – |
| CC(C)OC1Sc2nncn2N=C1c1ccccc1 (stereo not given) | inactive | 13.3 | – | – | inactive | 128 (≈ 467 µM) | – | – | inactive | – | 256 (≈ 933 µM) | 256 (≈ 933 µM) | 13.6 | 14.6 | inactive | – | – |
| CCOC1Sc2nnc(CC)n2N=C1c1ccc(F)cc1 (stereo not given) | 128 µg/mL (≈ 418 µM) | 13.6 | inactive | inactive | inactive | 128 (≈ 418 µM) | inactive | 13 | inactive | inactive | – | – | – | – | – | – | – |
| CCCOC1Sc2nnc(-c3ccccc3)n2N=C1c1ccccc1 (stereo not given) | inactive | 17.3 | – | – | inactive | 64 (≈ 183 µM) | – | – | inactive | – | 128 (≈ 365 µM) | 64 (≈ 183 µM) | 17.3 | 20.6 | inactive | – | – |
| COC1Sc2nnc(-c3ccccc3)n2N=C1c1ccccc1 (stereo not given) | inactive | 18.6 | – | – | inactive | 32 (≈ 99.3 µM) | – | – | inactive | – | 64 (≈ 199 µM) | 16 (≈ 49.6 µM) | 18 | 25.6 | inactive | – | – |
| CCOC1Sc2nnc(CC)n2N=C1c1ccc([N+](=O)[O-])cc1 (stereo not given) | 128 µg/mL (≈ 384 µM) | 15.6 | inactive | inactive | inactive | 64 (≈ 192 µM) | inactive | 13.3 | inactive | inactive | – | – | – | – | – | – | – |
| CCCc1nnc2n1N=C(c1ccccc1)C(OC)S2 (stereo not given) | inactive | 12.6 | – | – | inactive | 256 (≈ 888 µM) | – | – | inactive | – | 64 (≈ 222 µM) | 128 (≈ 444 µM) | 18.3 | 16 | inactive | – | – |
